Reference: patent US6057366A (priority 1994, dated 2000)
“Also recorded” adds a separate entry of the source.

Columns and labels:
[1] = tested on: heat and lactating mammary gland of the mouse; details: Sani et al., 1993 symposium; cited from earlier work
[2] = tested on: Colletotrichum gloeosporioides; details: cited from earlier work
[3] = tested on: myocardium; assay: Pathological effects on the myocardium after oral dosing; assay type: in vivo, mouse
Text: (§1) White lactating female Quackenbush mice of body weight 40-50 g were used. All animal experiments followed the code of practice for the care and use of animals for experimental purposes as outlined by the Australian National Health and Medical Research Council. For the toxicity testing of leaf and crude extracts, on the fourth day after parturition the litter of each mouse was reduced to eight pups and weights of dam and litter respectively recorded. The dam was then separated from the litter and fasted overnight. On the following day and for 24 hours thereafter, the dam was offered 20 g of powdered commercial rodent diet containing 5% of powdered freeze-dried avocado leaf. In the case of preliminary organic extracts of the leaf, equivalent quantities were added to 20 g of powdered rodent diet, mixed thoroughly and the solvent evaporated under reduced pressure. After 24 hours on the medicated diet, regular untreated cubed diet was provided and the litter restored to the dam. At later stages of the isolation and purification of the active principle, the compound was suspended in up to 1 ml of 1% Tween 80 or Intralipid and given as a single dose by gavage on days 4 to 5 of lactation without prior fasting of the dam and simultaneous temporary removal of her pups. The dam and her pups were weighed daily. […] From 3 to 7 days after exposure to the avocado supplemented diet, or gavage of the purified extracts as the case may be, the dam was euthanased with carbon dioxide and all mammary glands and heart removed and fixed in buffered neutral 10% formalin for pathological examination.

[4] = as above; assay type: in vivo, mouse; details: myocardium; mouse, oral; read-out: dose above which necrosis of myocardial fibres may occur
Text: as §1

[5] = tested on: human breast cancer cell lines (MCF7, ZR75, T47D); assay: Neutral red dye uptake assay (in vitro cytotoxicity), human breast cancer cell lines; assay type: cell-based; details: 10 to 0.3125 μg/ml, 20 hours incubation, average of 2 experiments, actual concentration reaching the cells unknown
Text: For purposes of using a rapid, simple and cheap method of pre-screening cytotoxicity, we chose the neutral red dye uptake procedure to test such activity in the given extract.
Human breast and ovarian cancer cell lines were maintained in RPMI 1640 culture medium supplemented with 10% fetal calf serum, 2 mm L-glutamine and penicillin, streptomycin and fungizone. Cells were passaged by trypsinization and plated in 96-well flat-bottomed tissue culture plates at 5×10^4 cells per well. Cells were preincubated for 6 hours at 37° C., 5% CO2 in a humidified atmosphere to allow cell attachment prior to addition of the extract.
Persin was dissolved in DMF (supplied by National Research Centre for Environmental Toxicology) to give a stock solution of 100 μg/ml. […] 10 μl of the solution was added to quadruplicate wells in doubling dilution from 10 μg/ml to 0.3125 μg/ml (final concentration). Control wells had tissue culture diluent added only. DMF controls had DMF added to a final concentration of 0.1%. The extract was incubated with the cells for 20 hours before being gently aspirated. Cells were washed twice with Hanks Balanced Salt Solution (HBSS) with centrifugation in special microtiter plate carriers between washes so as not to lose viable but dislodged cells.
Neutral red was prepared fresh before each experiment from a 1% stock solution. One hundred microtiters of working solution (67 μg/ml in HBSS) was added to all wells and incubation continued for a further 4 hours. Non-absorbed dye was removed by washing cells as described above.
Absorbed dye was extracted from cells by adding 100 μl of 50% ethanol in 1% acetic acid.
Plates were mixed thoroughly to allow full extraction of the dye and were then read in a Multiscan plate reader at 540 nm. Dose response curves were constructed by plotting the percentage of untreated/control well OD540 versus concentration of extract. Individual extract concentration points were tested in quadruplicate and the results presented are averaged from 2 separate experiments. […]

[6] = tested on: silkworm larvae; details: isolated from avocado leaves; Chang et al. 1975; cited from earlier work
[7] = tested on: human colon cancer cell line (LS174T); assay: Neutral red dye uptake assay (in vitro cytotoxicity), human colon cancer cell line; assay type: cell-based; details: any dose tested (10 to 0.3125 μg/ml), 20 hours
[8] = tested on: lactating mammary gland; assay type: in vivo, mouse; details: for activity in inducing widespread lactating mammary gland necrosis: 50-100 mg/kg body weight
Text: as §1
The R and S isomers of persin were tested for activity required to induce widespread lactating mammary gland necrosis at the dose rate of 50-100 mg/kg body weight.

[9] = tested on: avocado lipoxygenase; details: declines during ripening of the fruit; cited from earlier work
[10] = tested on: lactating mammary gland; assay type: in vivo; details: even as high single dose 200 mg/kg, mouse
[11] = tested on: lactating mammary gland; details: Craigmill et al. (1989), cited from earlier work

Structure (SMILES): CCCCC/C=C\C/C=C\CCCCCCCC(=O)C[C@@H](O)COC(C)=O [persin, (+)-(Z,Z)-1-acetyloxy-2-hydroxy-12,15-heneicosadien-4-one]
- toxicity for heart and lactating mammary gland [1]: responsible for demonstrated toxicity for the heat and lactating mammary gland of the mouse
- antifungal activity ([2]; isolated from avocado fruit peel or whole fruits, refs (ii) to (xiii)): exhibits antifungal activity in relation to the fungus Colletotrichum gloeosporioides
- loss of activity on double bond oxidation ([2]; natural compound, reference (v)): loses activity due to double bond oxidation
- myocardium histology (FIG. 9C) ([3]; 100 mg/kg orally, seven days previously): marked atrophy of muscle fibres (M) interstitial haemorrhage (H) and early scar tissue formation (S)
- myocardial fibrosis ([3]; doses above 100 mg/kg, animals surviving for seven days): areas of myocardial fibrosis can be observed in animals surviving for seven days
- hydrothorax / pulmonary oedema ([3]; doses above 100 mg/kg, more severely affected animals): Hydrothoraz and/or pulmonary oedema may be present in more severly affected animals
- damage to heart muscle ([3]; present studies): causes damage both to the lactating mammary gland and the heart muscle
- NOAEL [4]: > 100 mg/kg
- sensitivity of human breast cancer cell lines relative to other cell lines (neutral red uptake) [5]: Three human breast cancer cell lines showed greater sensitivity to the extract than other cell lines tested; also recorded: the three human breast cancer cell lines showing the greatest sensitivity to the compounds
- sensitivity of human breast cancer cell lines relative to other cell lines (neutral red uptake) ([5]; listed as extract): the human breast cancer cell lines were more sensitive to the extract than the other cell lines
- growth of silkworm larvae [6]: inhibited the growth of silkworm larvae
- effect on human colon cancer cell line (neutral red uptake) [7]: not affected by the extract at any dose tested
- activity in inducing widespread lactating mammary gland necrosis ([8]; mouse): active
- mammary epithelium histology (FIG. 9A) ([8]; 72 hours after single oral dose of 60 mg/kg on 4th day of lactation): extensive coagulative necrosis of the secretory tissues
- single oral dose required to induce widespread, non-fatal injury to the lactating mammary gland ([8]; mouse, single oral dose): 60 to 100 mg/kg
- character of the mammary gland injury ([8]; mouse, single oral dose, 60 to 100 mg/kg): interstitial oedema, congestion and haemorrhage and coagulative necrosis with desquamation of the acinar epithelial cells thereby preventing lactation
- inhibition of milk secretion ([8]; oral dosing): inhibition of milk secretion through such a necrogenic action on the secretory epithelium
- damage to lactating mammary gland ([8]; present studies): causes damage both to the lactating mammary gland and the heart muscle

Structure (SMILES): CCCCCCCCCCCCCCCCCC(=O)C[C@@H](O)COC(C)=O [RMC328, (R)-2-Hydroxy-4-oxohenicosan-1-yl Acetate]
- sensitivity of human breast cancer cell lines relative to other cell lines (neutral red uptake) [5]: the three human breast cancer cell lines showing the greatest sensitivity to the compounds

Structure (SMILES): CCCCC/C=C\C/C=C\CCCCCCCC(=O)CC(O)COC(C)=O (racemic) [mixture of isomers in equal proportions]
- activity in inducing widespread lactating mammary gland necrosis ([8]; mouse): less active than the R isomer

Structure (SMILES): Oc1cc(O)c2c(c1)O[C@H](c1ccc(O)c(O)c1)[C@H](O)C2 [epicatechin]
- inhibition of avocado lipoxygenase [9]: inhibitor of the enzyme

Structure (SMILES): CCCCC/C=C\C/C=C\CCCCCCCC(=O)C[C@H](O)COC(C)=O [S isomer, (2S)-2-hydroxy-4-oxo-henicosa-12Z,15Z-dien-1-yl acetate]
- activity in inducing widespread lactating mammary gland necrosis (high single dose) [10]: inactive

Structure (SMILES): COc1cc2c(c(OC)c1OC)-c1ccc(OC)c(=O)cc1[C@@H](NC(C)=O)CC2 [colchicine]
- mechanism: microtubule inhibition [11]: microtubule inhibitors
- effect on milk ejection from secretory acinar cells ([11]; locally applied to the acinar cells): prevent ejection of milk from the cells into the acinar lumen
